Measured values from patent US8450243B2, “Herbicidal quinoline and 1,8-naphthyridine compounds” (Syngenta Limited, priority 2009, dated 2013).

What was measured:
Type in all cases: in vivo
[1] = system: Abuthilon theophrasti (ABUTH); assay: Herbicidal glasshouse test, post-emergence; conditions: POST Application, evaluated after 13 days; for damage to plant (100=total damage to plant; 0=no damage to plant): 250 g/ha; for pest or weed control at 250 g/ha: Abutilon theophrasti, post-emergence, 312 h, read-out: damage to plant (100=total damage to plant; 0=no damage to plant)
Protocol: (§1) Seeds of a variety of test species were sown in standard soil in pots (Alopecurus myosuroides (ALOMY), Setaria faberi (SETFA), Echinochloa crus-galli (ECHCG), Abuthilon theophrasti (ABUTH) and Amaranthus retoflexus (AMARE)). After cultivation for one day (pre-emergence) or after 8 days cultivation (post-emergence) under controlled conditions in a glasshouse (at 24/16° C., day/night; 14 hours light; 65% humidity), the plants were sprayed with an aqueous spray solution derived from the formulation of the technical active ingredient in acetone/water (50:50) solution containing 0.5% Tween 20 (polyoxyethelyene sorbitan monolaurate, CAS RN 9005-64-5). Compounds were applied at 250 g/ha. The test plants were then grown in a glasshouse under controlled conditions in a glasshouse (at 24/16° C., day/night; 14 hours light; 65% humidity) and watered twice daily. After 13 days for pre and post-emergence, the test was evaluated (100=total damage to plant; 0=no damage to plant).

[2] = system: Setaria faberi (SETFA); assay: Herbicidal glasshouse test, post-emergence; conditions: POST Application, evaluated after 13 days; for damage to plant (100=total damage to plant; 0=no damage to plant): 250 g/ha; for pest or weed control at 250 g/ha: Setaria faberi, post-emergence, 312 h, read-out: damage to plant (100=total damage to plant; 0=no damage to plant)
Protocol: as §1

[3] = system: Amaranthus retoflexus (AMARE); assay: Herbicidal glasshouse test, post-emergence; conditions: POST Application, evaluated after 13 days; for damage to plant (100=total damage to plant; 0=no damage to plant): 250 g/ha; for pest or weed control at 250 g/ha: Amaranthus retroflexus, post-emergence, 312 h, read-out: damage to plant (100=total damage to plant; 0=no damage to plant)
Protocol: as §1

[4] = system: Echinochloa crus-galli (ECHCG); assay: Herbicidal glasshouse test, post-emergence; conditions: POST Application, evaluated after 13 days; for damage to plant (100=total damage to plant; 0=no damage to plant): 250 g/ha; for pest or weed control at 250 g/ha: Echinochloa crus-galli, post-emergence, 312 h, read-out: damage to plant (100=total damage to plant; 0=no damage to plant)
Protocol: as §1

[5] = system: Alopecurus myosuroides (ALOMY); assay: Herbicidal glasshouse test, post-emergence; conditions: POST Application, evaluated after 13 days; for damage to plant (100=total damage to plant; 0=no damage to plant): 250 g/ha; for pest or weed control at 250 g/ha: Alopecurus myosuroides, post-emergence, 312 h, read-out: damage to plant (100=total damage to plant; 0=no damage to plant)
Protocol: as §1

[6] = system: Abuthilon theophrasti (ABUTH); assay: Herbicidal glasshouse test, pre-emergence; conditions: PRE Application, evaluated after 13 days; for damage to plant (100=total damage to plant; 0=no damage to plant): 250 g/ha; for pest or weed control at 250 g/ha: Abutilon theophrasti, pre-emergence, 312 h, read-out: damage to plant (100=total damage to plant; 0=no damage to plant)
Protocol: as §1

[7] = system: Setaria faberi (SETFA); assay: Herbicidal glasshouse test, pre-emergence; conditions: PRE Application, evaluated after 13 days; for damage to plant (100=total damage to plant; 0=no damage to plant): 250 g/ha; for pest or weed control at 250 g/ha: Setaria faberi, pre-emergence, 312 h, read-out: damage to plant (100=total damage to plant; 0=no damage to plant)
Protocol: as §1

[8] = system: Amaranthus retoflexus (AMARE); assay: Herbicidal glasshouse test, pre-emergence; conditions: PRE Application, evaluated after 13 days; for damage to plant (100=total damage to plant; 0=no damage to plant): 250 g/ha; for pest or weed control at 250 g/ha: Amaranthus retroflexus, pre-emergence, 312 h, read-out: damage to plant (100=total damage to plant; 0=no damage to plant)
Protocol: as §1

[9] = system: Echinochloa crus-galli (ECHCG); assay: Herbicidal glasshouse test, pre-emergence; conditions: PRE Application, evaluated after 13 days; for damage to plant (100=total damage to plant; 0=no damage to plant): 250 g/ha; for pest or weed control at 250 g/ha: Echinochloa crus-galli, pre-emergence, 312 h, read-out: damage to plant (100=total damage to plant; 0=no damage to plant)
Protocol: as §1

[10] = system: Alopecurus myosuroides (ALOMY); assay: Herbicidal glasshouse test, pre-emergence; conditions: PRE Application, evaluated after 13 days; for damage to plant (100=total damage to plant; 0=no damage to plant): 250 g/ha; for pest or weed control at 250 g/ha: Alopecurus myosuroides, pre-emergence, 312 h, read-out: damage to plant (100=total damage to plant; 0=no damage to plant)
Protocol: as §1

Row | SMILES | damage to plant (100=total damage to plant; 0=no damage to plant) [1] | damage to plant (100=total damage to plant; 0=no damage to plant) [2] | damage to plant (100=total damage to plant; 0=no damage to plant) [3] | damage to plant (100=total damage to plant; 0=no damage to plant) [4] | damage to plant (100=total damage to plant; 0=no damage to plant) [5] | damage to plant (100=total damage to plant; 0=no damage to plant) [6] | damage to plant (100=total damage to plant; 0=no damage to plant) [7] | damage to plant (100=total damage to plant; 0=no damage to plant) [8] | damage to plant (100=total damage to plant; 0=no damage to plant) [9] | damage to plant (100=total damage to plant; 0=no damage to plant) [10] | pest or weed control at 250 g/ha [1] | pest or weed control at 250 g/ha [2] | pest or weed control at 250 g/ha [3] | pest or weed control at 250 g/ha [4] | pest or weed control at 250 g/ha [5] | pest or weed control at 250 g/ha [6] | pest or weed control at 250 g/ha [7] | pest or weed control at 250 g/ha [8] | pest or weed control at 250 g/ha [9] | pest or weed control at 250 g/ha [10]
1 | Cc1ccc(-n2c(=O)c(C(=O)C3C(=O)CCCC3=O)cc3cc(F)cnc32)cc1 [Compound 4.24] | 90 | 80 | 80 | 80 | 70 | 100 | 90 | 100 | 100 | 80 |  |  |  |  |  |  |  |  |  | 
2 | O=C1CCCC(=O)C1C(=O)c1cc2cc(F)cnc2n(-c2ccccc2[N+](=O)[O-])c1=O [Compound 4.36] |  |  |  |  |  |  |  |  |  |  | 80% | 80% | 80% | 90% | 90% | 100% | 100% | 100% | 100% | 90%
3 | CCCn1c(=O)c(C(=O)C2C(=O)CCCC2=O)cc2cc(F)cnc21 [Compound 1.50] |  |  |  |  |  |  |  |  |  |  | 80% | 80% | 70% | 80% | 70% | 90% | 100% | 90% | 100% | 80%
4 | COCCn1c(=O)c(C(=O)C2C(=O)CCCC2=O)cc2cc(F)cnc21 [Compound 1.44] |  |  |  |  |  |  |  |  |  |  | 90% | 80% | 80% | 80% | 80% | 90% | 100% | 100% | 100% | 90%
5 | O=C1CCCC(=O)C1C(=O)c1cc2cc(F)cnc2n(CC(F)F)c1=O [Compound 1.45] | 80 | 80 | 80 | 80 | 60 | 100 | 80 | 100 | 100 | 70 |  |  |  |  |  |  |  |  |  | 
6 | O=C1CCCC(=O)C1C(=O)c1cc2cc(F)cnc2n(-c2ccc(F)cc2F)c1=O [Compound 4.35] | 80 | 80 | 90 | 90 | 90 | 100 | 100 | 100 | 100 | 90 |  |  |  |  |  |  |  |  |  | 
7 | Cn1c(=O)c(C(=O)C2C(=O)CCCC2=O)cc2ccc(Br)cc21 [Compound 3.42] |  |  |  |  |  |  |  |  |  |  | 90% | 70% | 80% | 80% | 20% | 50% | 0% | 80% | 70% | 10%
